For this assay, the target named is human orexin type 2 receptor (hOX2R) (Homo sapiens (Human), UniProt O43614). Put plainly: Measurement of orexin type 2 receptor agonist activity (Experimental Example 2-1, FLIPR TETRA, intracellular Ca2+). The class given is cell-based. The following applies: CHO dhfr- cells expressing hOX2R; for Emax at 30 µM: value at 30 uM concentration, orexin B as full agonist = 100%; for Emax: read-out: Emax (%).

The mark [1] stands for this setting: agonist activity, 10 nM human orexin B = 100%.

SMILES strings stand for the structures.

Chain of human orexin type 2 receptor (hOX2R) (O43614 whole entry): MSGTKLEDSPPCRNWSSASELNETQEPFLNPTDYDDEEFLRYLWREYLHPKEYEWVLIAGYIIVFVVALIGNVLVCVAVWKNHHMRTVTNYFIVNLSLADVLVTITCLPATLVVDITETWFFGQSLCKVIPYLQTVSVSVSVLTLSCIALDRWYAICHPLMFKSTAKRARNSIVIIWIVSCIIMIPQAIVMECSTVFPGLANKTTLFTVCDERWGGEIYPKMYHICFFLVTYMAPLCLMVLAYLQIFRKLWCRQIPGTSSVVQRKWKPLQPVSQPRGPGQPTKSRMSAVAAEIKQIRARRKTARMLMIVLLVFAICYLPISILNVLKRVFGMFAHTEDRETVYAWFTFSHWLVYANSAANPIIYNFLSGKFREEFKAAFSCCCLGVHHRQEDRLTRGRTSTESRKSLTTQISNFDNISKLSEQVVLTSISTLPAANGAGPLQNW

For `COCC(=O)N1CCC[C@H](NS(C)(=O)=O)[C@@H]1CO[C@H]1CC[C@@H](c2ccccc2)CC1` (relative stereo) [Example 119, N-(cis-1-(methoxyacetyl)-2-(((cis-4-phenylcyclohexyl)oxy)methyl)piperidin-3-yl)methanesulfonamide], the maximum response (Emax) at 30 µM turned out to be 107%. This molecule also had a half-maximal effective concentration (EC50) under setting [1] of 30 nM. Take `CS(=O)(=O)N[C@H]1CCCN(C(=O)CC(F)(F)F)[C@H]1CO[C@H]1CC[C@@H](c2ccccc2)CC1` [Example 306, N-((2R,3S)-2-(((cis-4-phenylcyclohexyl)oxy)methyl)-1-(3,3,3-trifluoropropanoyl)piperidin-3-yl)methanesulfonamide]: where the note is “FLIPR TETRA, Fluo-4AM”, the midpoint of the response, the EC50, lay at 13 nM and the Emax was 101%.

`CS(=O)(=O)N[C@H]1CCCN(C(=O)C2CC2)[C@H]1CO[C@H]1CC[C@@H](c2c(F)cccc2F)CC1` [Example 213, N-((2R,3S)-1-(cyclopropylcarbonyl)-2-(((cis-4-(2,6-difluorophenyl)cyclohexyl)oxy)methyl)piperidin-3-yl)methanesulfonamide]: under “FLIPR TETRA, Fluo-4AM”, a half-maximal effect (EC50) was put at 0.44 nM and the Emax came out at 102%.

As to `CS(=O)(=O)N[C@H]1CCCN[C@H]1CO[C@H]1CC[C@@H](c2ccccc2C#N)CC1` (relative stereo) [Example 262, N-(cis-2-(((cis-4-(2-cyanophenyl)cyclohexyl)oxy)methyl)piperidin-3-yl)methanesulfonamide], where the note is “FLIPR TETRA, Fluo-4AM”, the EC50 came to 2500 nM and the Emax worked out at 94%. Take `CS(=O)(=O)N[C@H]1CCCN(C(=O)C2COC2)[C@H]1CO[C@H]1CC[C@@H](c2ccccc2)CC1` (relative stereo) [Example 120, N-(cis-1-(oxetan-3-ylcarbonyl)-2-(((cis-4-phenylcyclohexyl)oxy)methyl)piperidin-3-yl)methanesulfonamide]: the Emax at 30 µM amounted to 96%. Also, the response under setting [1] was half-maximal at 61 nM (EC50). Consider `Cn1ccc([C@H]2CC[C@@H](OC[C@@H]3NCCC[C@@H]3NS(C)(=O)=O)CC2)n1` (relative stereo) [Example 143, N-(cis-2-(((cis-4-(1-methyl-1H-pyrazol-3-yl)cyclohexyl)oxy)methyl)piperidin-3-yl)methanesulfonamide], for which, under “FLIPR TETRA, Fluo-4AM”, the Emax was 96%. For `COC(=O)N1CCC[C@H](NS(C)(=O)=O)[C@@H]1CO[C@H]1CC[C@@]2(CC1)OCc1ccccc12` [Example 274, methyl cis-3-((methylsulfonyl)amino)-2-(((1r,4′r)-3H-spiro[2-benzofuran-1,1′-cyclohexan]-4′-yloxy)methyl)piperidine-1-carboxylate], under “FLIPR TETRA, Fluo-4AM”, the midpoint of the response, the EC50, lay at 260 nM and the Emax came to 118%. On to `CC(C)OC(=O)N1CCC[C@H](NS(C)(=O)=O)[C@@H]1CO[C@@H]1CCN(c2ncccn2)[C@H](C)C1` (stereo in doubt) [Example 329, isopropyl cis-2-(((cis-2-methyl-1-(pyrimidin-2-yl)piperidin-4-yl)oxy)methyl)-3-((methylsulfonyl)amino)piperidine-1-carboxylate], for which, where the note is “FLIPR TETRA, Fluo-4AM”, the midpoint of the response, the EC50, lay at 22 nM and the Emax was 93%. `CS(=O)(=O)N[C@H]1CCCN(C(=O)C2CC2)[C@H]1CO[C@H]1CC[C@@H](c2ccccc2)CC1` [Example 31, N-((2R,3S)-1-(cyclopropylcarbonyl)-2-(((cis-4-phenylcyclohexyl)oxy)methyl)piperidin-3-yl)methanesulfonamide] had a maximal effect (Emax) at 30 µM of 95%. This molecule came in with an EC50 under setting [1] of 0.66 nM. As for `COC(=O)N1CCC[C@H](NS(C)(=O)=O)[C@@H]1CO[C@H]1CC[C@@H](c2cc(F)cc(F)c2F)CC1` [Example 244, methyl (2R,3S)-3-((methylsulfonyl)amino)-2-(((cis-4-(2,3,5-trifluorophenyl)cyclohexyl)oxy)methyl)piperidine-1-carboxylate], where the note is “FLIPR TETRA, Fluo-4AM”, the midpoint of the response, the EC50, lay at 2.6 nM and the Emax was 97%. Molecule `CC(=O)N1CCC[C@H](NS(=O)(=O)C(F)(F)F)[C@@H]1CO[C@H]1CC[C@@H](C(C)C)CC1` (relative stereo) [Example 80, N-(cis-1-acetyl-2-(((cis-4-isopropylcyclohexyl)oxy)methyl)piperidin-3-yl)-1,1,1-trifluoromethanesulfonamide] displayed an Emax at 30 µM of 98%. Under setting [1], this molecule had a concentration giving a half-maximal response (EC50) of 660 nM. Regarding `CCC(=O)N1CCC[C@H](NS(C)(=O)=O)[C@@H]1COC1CCN(c2ccccc2F)CC1` (relative stereo) [Example 219, N-(cis-2-(((1-(2-fluorophenyl)piperidin-4-yl)oxy)methyl)-1-propionylpiperidin-3-yl)methanesulfonamide], for the setting “FLIPR TETRA, Fluo-4AM”, the EC50 amounted to 3000 nM and the Emax is 91%. Turning to `CC(=O)N1CCC[C@H](NS(C)(=O)=O)[C@@H]1CO[C@H]1CC[C@@H](C(F)(F)F)CC1` (relative stereo) [Example 106, N-(cis-1-acetyl-2-(((cis-4-(trifluoromethyl)cyclohexyl)oxy)methyl)piperidin-3-yl)methanesulfonamide], the maximum response (Emax) at 30 µM came to 89%. Under setting [1], the EC50 was determined as 4800 nM.

Take `CCNC(=O)N1CCC[C@H](NS(C)(=O)=O)[C@@H]1CO[C@H]1C[C@@H](Cc2ccccc2)C1` (relative stereo) [Example 266, cis-2-(((cis-3-benzylcyclobutyl)oxy)methyl)-N-ethyl-3-((methylsulfonyl)amino)piperidine-1-carboxamide]: under “FLIPR TETRA, Fluo-4AM”, a half-maximal effect (EC50) was put at 3700 nM and the Emax worked out at 95%. The matching figures for `CC(=O)N1CCC[C@H](NS(C)(=O)=O)[C@@H]1CO[C@H]1CC[C@@H](c2ccc(F)c(F)c2)CC1` (relative stereo) [Example 141, N-(cis-1-acetyl-2-(((cis-4-(3,4-difluorophenyl)cyclohexyl)oxy)methyl)piperidin-3-yl)methanesulfonamide]: 460 nM and 95%. Consider `COC(=O)N1CCC[C@H](NS(C)(=O)=O)[C@@H]1CO[C@H]1CC[C@@H](c2cccc(OC(F)(F)F)c2)CC1` (relative stereo) [Example 298, methyl cis-3-((methylsulfonyl)amino)-2-(((cis-4-(3-(trifluoromethoxy)phenyl)cyclohexyl)oxy)methyl)piperidine-1-carboxylate], for which the Emax (FLIPR TETRA, Fluo-4AM) was determined as 92%. In the case of `CC(=O)N1CCC[C@H](NS(C)(=O)=O)[C@@H]1CO[C@H]1CC[C@@H](c2cc(F)ccc2F)CC1` (relative stereo) [Example 198, N-(cis-1-acetyl-2-(((cis-4-(2,5-difluorophenyl)cyclohexyl)oxy)methyl)piperidin-3-yl)methanesulfonamide], where the note is “FLIPR TETRA, Fluo-4AM”, the EC50 was 56 nM and the Emax was 92%. The matching figures for `COC(=O)N1CCC[C@H](NS(C)(=O)=O)[C@@H]1COC1CCC(c2ccccc2)C1` (relative stereo) [Example 338, methyl cis-3-((methylsulfonyl)amino)-2-(((3-phenylcyclopentyl)oxy)methyl)-piperidine-1-carboxylate]: 490 nM and 83%. The matching figures for `CS(=O)(=O)N[C@H]1CCCN(C(=O)OC2CC2)[C@H]1COC1CCN(c2ccccc2F)CC1` (relative stereo) [Example 290, cyclopropyl cis-2-(((1-(2-fluorophenyl)piperidin-4-yl)oxy)methyl)-3-((methylsulfonyl)amino)piperidine-1-carboxylate]: 3300 nM and 79%.

For `CN(C)S(=O)(=O)N[C@H]1CCCN(C(=O)C2CC2)[C@H]1CO[C@H]1CC[C@@H](c2ccccc2)CC1` [Example 310, N′-((2R,3S)-1-(cyclopropylcarbonyl)-2-(((cis-4-phenylcyclohexyl)oxy)methyl)-piperidin-3-yl)-N,N-dimethylsulfuric diamide], where the note is “FLIPR TETRA, Fluo-4AM”, a half-maximal response (EC50) required 2.2 nM and the Emax worked out at 101%. As to `CS(=O)(=O)N[C@H]1CCCN(C(=O)CC#N)[C@H]1CO[C@H]1CC[C@@H](c2ccccc2)CC1` [Example 180, N-((2R,3S)-1-(cyanoacetyl)-2-(((cis-4-phenylcyclohexyl)oxy)methyl)piperidin-3-yl)methanesulfonamide], where the note is “FLIPR TETRA, Fluo-4AM”, the EC50 worked out at 17 nM and the Emax came to 106%.

Consider `CS(=O)(=O)N[C@H]1CCCN(C(=O)C2CC2)[C@H]1COC1CCC(F)(c2cc(F)cc(F)c2)CC1` (relative stereo) [Example 327, N-(cis-1-(cyclopropylcarbonyl)-2-(((4-(3,5-difluorophenyl)-4-fluorocyclohexyl)oxy)methyl)-piperidin-3-yl)methanesulfonamide], for which, under “FLIPR TETRA, Fluo-4AM”, the midpoint of the response, the EC50, lay at 2600 nM and the Emax was 86%. The matching figures for `CS(=O)(=O)N[C@H]1CCCN(C(=O)C2CC2)[C@H]1CO[C@H]1CC[C@@H](c2cc(F)cc(F)c2F)CC1` [Example 245, N-((2R,3S)-1-(cyclopropylcarbonyl)-2-(((cis-4-(2,3,5-trifluorophenyl)cyclohexyl)oxy)methyl)piperidin-3-yl)methanesulfonamide]: 2 nM and 97%. The matching figures for `CCc1ccccc1[C@H]1CC[C@@H](OC[C@H]2[C@@H](NS(C)(=O)=O)CCCN2C(C)=O)CC1` [Example 312, N-((2R,3S)-1-acetyl-2-(((cis-4-(2-ethylphenyl)cyclohexyl)oxy)methyl)-piperidin-3-yl)methanesulfonamide]: 32 nM and 98%. The corresponding values for `CS(=O)(=O)N[C@H]1CCCN(C(=O)C2CC2)[C@H]1COC1CCN(c2ccccc2)CC1` (relative stereo) [Example 247, N-(cis-1-(cyclopropylcarbonyl)-2-(((1-phenylpiperidin-4-yl)oxy)methyl)piperidin-3-yl)methanesulfonamide] are 960 nM and 102%. As to `CC(=O)N1CCC[C@H](NS(C)(=O)=O)[C@@H]1CO[C@H]1CC[C@@H](c2ccc(F)cc2F)CC1` (relative stereo) [Example 145, N-(cis-1-acetyl-2-(((cis-4-(2,4-difluorophenyl)cyclohexyl)oxy)methyl)piperidin-3-yl)methanesulfonamide], for the setting “FLIPR TETRA, Fluo-4AM”, the EC50 was found to be 810 nM and the Emax worked out at 106%.
